Results on 20 compounds are retold here after patent US9120749B2, “Quinoline derivatives and MELK inhibitors containing the same” (ONCOTHERAPY SCIENCE, INC., priority 2010, dated 2015).

Broadly, the IC50 is the concentration needed to halve the response being measured.

Counter-ions that a name gives are not always drawn.

One assay concerns DU4475 cells. In words: Cell-based assay: anti-proliferative activity, Cell Counting Kit-8, 72 hours (DU4475). Particulars: Homo sapiens, DU-4475, 72 h.
The test system of the next assay is T47D cells. Kind of assay: Cell-based assay: anti-proliferative activity, Cell Counting Kit-8, 72 hours (T47D). Particulars: Homo sapiens, T47D, 72 h. Summed up: (§1)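 Target-specific cytotoxicity: seeded cells treated with MELK inhibitor candidates for 72 h, proliferation quantified via CCK-8, IC50 fitted.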
(In general: Tetrazolium dyes change colour on reduction, which living cells bring about.)

Another assay addresses MELK (Homo sapiens, UniProt Q14680). In words: Kinase assay: MELK activity, phosphorylation of FITC-labeled histone H3 peptide measured by IMAP fluorescence polarization. In kind it is biochemical. Particulars: read-out: IC50 (μM) (kinase assay). Summed up:
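Polarization of fluorescence served as the signal for MELK turnover of FITC-conjugated histone H3 peptide. Binding solution quenched each reaction, and plates stood 0.5 hour at room temperature before reading.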

The subject of a further assay is HT-1197 cells. In words: Cell-based assay: anti-proliferative activity, Cell Counting Kit-8, 72 hours (HT-1197, negative control without MELK expression). The settings on record: HT1197 cells (negative control, no MELK expression), 72 hours. Summed up: as §1
The test system of the next assay is A549 cells. Kind of assay: Cell-based assay: anti-proliferative activity, Cell Counting Kit-8, 72 hours (A549). The settings on record: Homo sapiens, A549, 72 h, 72 hours. The method, boiled down: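 Cell Counting Kit-8 read-out of A549 growth after 72 hours of inhibitor exposure, cells plated in 96-well format. Values reported as IC50.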

MELK, sequence (Q14680 whole entry, looked up): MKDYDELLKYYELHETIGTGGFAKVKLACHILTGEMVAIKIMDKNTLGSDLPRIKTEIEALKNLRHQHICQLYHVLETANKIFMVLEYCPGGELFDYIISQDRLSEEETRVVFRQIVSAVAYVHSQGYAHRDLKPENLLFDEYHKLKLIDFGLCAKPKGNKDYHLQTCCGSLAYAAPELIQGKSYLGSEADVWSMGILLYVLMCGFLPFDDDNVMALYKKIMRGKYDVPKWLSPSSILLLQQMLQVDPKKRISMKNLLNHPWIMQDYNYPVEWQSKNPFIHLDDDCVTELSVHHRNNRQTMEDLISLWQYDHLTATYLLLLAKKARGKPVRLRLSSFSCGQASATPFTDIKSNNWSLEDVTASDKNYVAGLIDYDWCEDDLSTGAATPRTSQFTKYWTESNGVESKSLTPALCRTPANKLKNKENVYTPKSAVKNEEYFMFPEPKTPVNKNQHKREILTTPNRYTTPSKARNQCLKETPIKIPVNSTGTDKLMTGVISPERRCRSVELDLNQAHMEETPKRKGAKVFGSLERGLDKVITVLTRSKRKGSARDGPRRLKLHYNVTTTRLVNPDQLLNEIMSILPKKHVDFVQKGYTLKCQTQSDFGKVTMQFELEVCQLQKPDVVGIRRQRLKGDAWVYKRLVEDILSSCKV

With `COc1cc(-c2ccc3ncc(C(=O)C4CC4)c(Nc4cnc(N5CCCC(N)C5)nc4)c3c2)cc(Cl)c1O` (stereo not shown) [Example 644, (4-(2-(3-aminopiperidin-1-yl)pyrimidin-5-ylamino)-6-(3-chloro-4-hydroxy-5-methoxyphenyl)quinolin-3-yl)(cyclopropyl)methanone], the IC50 was 0.068 µM with DU4475 cells; 0.047 µM in the assay on T47D cells; 0.0028 µM on MELK; 2.4 µM in the assay on HT-1197 cells (Homo sapiens, HT1197, 72 h); 0.23 µM in the assay on A549 cells.

For the compound `N[C@H]1CC[C@H](n2cc(Nc3c(C(=O)C4CC4)cnc4ccc(-c5cc(Cl)c(O)c(Cl)c5)cc34)cn2)CC1` [Example 706, (4-((1-(trans-4-aminocyclohexyl)-1H-pyrazol-4-yl)amino)-6-(3,5-dichloro-4-hydroxyphenyl)quinolin-3-yl)(cyclopropyl)methanone dihydrochloride], the IC50 was determined as 0.02 µM with DU4475 cells; 0.042 µM with T47D cells; 0.0011 µM on MELK; 7.9 µM in the assay with HT-1197 cells (Homo sapiens, HT1197, 72 h); 0.59 µM with A549 cells.

Consider `CC(=O)c1cnc2ccc(-c3cc(Cl)c(O)c(Cl)c3)cc2c1Nc1ccc(N2CCNCC2)nc1` [Example 702], for which the IC50 worked out at 0.044 µM in the assay on DU4475 cells; 0.046 µM with T47D cells; 0.0014 µM at MELK; 2.4 µM in the assay with HT-1197 cells (Homo sapiens, HT1197, 72 h); 0.14 µM in the assay with A549 cells.

On to `NC1CCN(c2cc(Nc3c(C(=O)C4CC4)cnc4ccc(-c5cc(Cl)c(O)c(Cl)c5)cc34)ccn2)CC1` [Example 735, (4-(2-(4-aminopiperidin-1-yl)pyridin-4-ylamino)-6-(3,5-dichloro-4-hydroxyphenyl)quinolin-3-yl)(cyclopropyl)methanone], for which the IC50 in the assay on DU4475 cells stood at 0.5 µM; in the assay with T47D cells it was 1 µM; at MELK, 0.0041 µM; in the assay with HT-1197 cells (Homo sapiens, HT1197, 72 h), 20 µM; in the assay with A549 cells it was 3.5 µM.

Regarding `COc1cc(-c2ccc3ncc(C(=O)C4CC4)c(Nc4cccc(CCN(C)C)c4)c3c2)cc(Cl)c1O` [Example 692, (6-(3-chloro-4-hydroxy-5-methoxyphenyl)-4-(3-(2-(dimethylamino)ethyl)phenylamino)quinolin-3-yl)(cyclopropyl)methanone], the IC50 with DU4475 cells came out at 0.3 µM; in the assay with T47D cells it was 1 µM; at MELK, 0.0056 µM; in the assay with HT-1197 cells (Homo sapiens, HT1197, 72 h) it was 5.9 µM; with A549 cells, 0.37 µM.

Regarding `COc1cc(-c2ccc3ncc(C(=O)C4CC4)c(NC4CCC(N5CCC(OC)C5)CC4)c3c2)cc(Cl)c1O` (stereo not shown) [Example 687, (6-(3-chloro-4-hydroxy-5-methoxyphenyl)-4-(4-(3-methoxypyrrolidin-1-yl)cyclohexylamino)quinolin-3-yl)(cyclopropyl)methanone], the IC50 in the assay with DU4475 cells was determined as 0.33 µM; with T47D cells, 0.63 µM; on MELK, 0.0033 µM; in the assay with HT-1197 cells (Homo sapiens, HT1197, 72 h), 3.3 µM; in the assay with A549 cells it was 0.45 µM.

`COc1cc(-c2ccc3ncc(C(=O)C4CC4)c(Nc4ccc(NC5CCNC5)nc4)c3c2)cc(Cl)c1O` (stereo not shown) [Example 665, (6-(3-chloro-4-hydroxy-5-methoxyphenyl)-4-(6-(pyrrolidin-3-ylamino)pyridin-3-ylamino)quinolin-3-yl)(cyclopropyl)methanone]: the IC50 is 0.22 µM with DU4475 cells; 0.16 µM in the assay with T47D cells; 0.0033 µM at MELK; 3.7 µM with HT-1197 cells (Homo sapiens, HT1197, 72 h); 0.53 µM with A549 cells.

For the compound `CN(C)C1CCN(Cc2ccc(Nc3c(C(=O)C4CC4)cnc4ccc(-c5cc(F)c(O)c(Cl)c5)cc34)cc2)C1` (stereo not shown) [Example 696, (6-(3-chloro-5-fluoro-4-hydroxyphenyl)-4-(4-((3-(dimethylamino)pyrrolidin-1-yl)methyl)phenylamino)quinolin-3-yl)(cyclopropyl)methanone], the IC50 in the assay with DU4475 cells was determined as 0.17 µM; in the assay with T47D cells, 0.46 µM; on MELK, 0.012 µM; in the assay with HT-1197 cells (Homo sapiens, HT1197, 72 h) it was 5.4 µM; with A549 cells, 0.18 µM.

Turning to `CN[C@H]1CC[C@H](n2cc(Nc3c(C(=O)C4CC4)cnc4ccc(-c5cc(Cl)c(O)c(Cl)c5)cc34)cn2)CC1` [Example 705, Cyclopropyl{6-(3,5-dichloro-4-hydroxyphenyl)-4-[1-(trans-4-(methylamino)cyclohexyl)-1H-pyrazol-4-ylamino]quinolin-3-yl}methanone], the IC50 came out at 0.072 µM in the assay on DU4475 cells; 0.24 µM in the assay on T47D cells; 0.0017 µM at MELK; 10 µM in the assay with HT-1197 cells (Homo sapiens, HT1197, 72 h); 1.7 µM with A549 cells.

Regarding `O=C(c1cnc2ccc(-c3cc(F)c(O)c(Cl)c3)cc2c1Nc1ccc(NC2CCNC2)nc1)C1CC1` (stereo not shown) [Example 667, (6-(3-chloro-5-fluoro-4-hydroxyphenyl)-4-(6-(pyrrolidin-3-ylamino)pyridin-3-ylamino)quinolin-3-yl)(cyclopropyl)methanone], the IC50 in the assay with DU4475 cells came out at 0.077 µM; with T47D cells, 0.17 µM; on MELK, 0.01 µM; in the assay on HT-1197 cells (Homo sapiens, HT1197, 72 h) it was 10 µM; in the assay with A549 cells it was 7.7 µM.

Consider `COc1cc(-c2ccc3ncc(C(C)=O)c(N[C@H]4CC[C@H](CN5CCCC5)CC4)c3c2)cc(Cl)c1O` [Example 734], for which the IC50 in the assay with DU4475 cells stood at 0.36 µM; with T47D cells it was 0.51 µM; at MELK, 0.0016 µM; in the assay on HT-1197 cells (Homo sapiens, HT1197, 72 h), 6.4 µM; in the assay on A549 cells, 0.25 µM.

In the case of `CN1CCCC(n2cc(Nc3c(C(=O)C4CC4)cnc4ccc(-c5cc(F)c(O)c(Cl)c5)cc34)cn2)C1` (stereo not shown) [Example 699, {6-(3-Chloro-5-fluoro-4-hydroxyphenyl)-4-[1-(1-methylpiperidin-3-yl)-1H-pyrazol-4-ylamino]quinolin-3-yl}(cyclopropyl)methanone], the IC50 is 0.072 µM in the assay with DU4475 cells; 0.24 µM in the assay on T47D cells; 0.0026 µM at MELK; 2.7 µM with HT-1197 cells (Homo sapiens, HT1197, 72 h); 0.18 µM with A549 cells.

As to `O=C(c1cnc2ccc(-c3cc(Cl)c(O)c(Cl)c3)cc2c1Nc1ccc(NC2CCNC2)nc1)C1CC1` (stereo not shown) [Example 666, cyclopropyl(6-(3,5-dichloro-4-hydroxyphenyl)-4-(6-(pyrrolidin-3-ylamino)pyridin-3-ylamino)quinolin-3-yl)methanone], the IC50 in the assay on DU4475 cells stood at 0.071 µM; in the assay with T47D cells, 0.34 µM; on MELK, 0.024 µM; with HT-1197 cells (Homo sapiens, HT1197, 72 h), 10 µM; with A549 cells it was 10 µM.

As for `CC(=O)c1cnc2ccc(-c3cc(F)c(O)c(Cl)c3)cc2c1Nc1ccc(CN2CCN(C)CC2)cc1` [Example 656, 1-(6-(3-chloro-5-fluoro-4-hydroxyphenyl)-4-(4-((4-methylpiperazin-1-yl)methyl)phenylamino)quinolin-3-yl)ethanone], the IC50 in the assay with DU4475 cells was found to be 0.27 µM; in the assay on T47D cells, 0.19 µM; on MELK, 0.033 µM; with HT-1197 cells (Homo sapiens, HT1197, 72 h) it was 6.1 µM; in the assay with A549 cells, 0.41 µM.

In the case of `O=C(c1cnc2ccc(-c3cc(Cl)c(O)c(Cl)c3)cc2c1Nc1ccc(NCCO)nc1)C1CC1` [Example 678, cyclopropyl(6-(3,5-dichloro-4-hydroxyphenyl)-4-(6-(2-hydroxyethylamino)pyridin-3-ylamino)quinolin-3-yl)methanone], the IC50 with DU4475 cells was 0.11 µM; in the assay on T47D cells it was 0.41 µM; at MELK, 0.011 µM; in the assay with HT-1197 cells (Homo sapiens, HT1197, 72 h), 5.1 µM; in the assay with A549 cells it was 1.2 µM.

With `COC1CCN(C2CCC(Nc3c(C(=O)C4CC4)cnc4ccc(-c5cc(Cl)c(O)c(Cl)c5)cc34)CC2)C1` (stereo not shown) [Example 661, cyclopropyl(6-(3,5-dichloro-4-hydroxyphenyl)-4-(4-(3-methoxypyrrolidin-1-yl)cyclohexylamino)quinolin-3-yl)methanone], the IC50 in the assay on DU4475 cells worked out at 0.1 µM; with T47D cells, 0.25 µM; on MELK, 0.0018 µM; with HT-1197 cells (Homo sapiens, HT1197, 72 h), 1.4 µM; in the assay on A549 cells, 0.17 µM.

For the compound `CC(=O)c1cnc2ccc(-c3cc(F)c(O)c(Cl)c3)cc2c1Nc1ccc(N2CCCC(N)C2)nc1` (stereo not shown) [Example 732, 1-(4-(6-(3-aminopiperidin-1-yl)pyridin-3-ylamino)-6-(3-chloro-5-fluoro-4-hydroxyphenyl)quinolin-3-yl)ethanone], the IC50 stood at 0.0099 µM in the assay with DU4475 cells; 0.0056 µM in the assay on T47D cells; 0.0017 µM at MELK; 0.18 µM in the assay with HT-1197 cells; 0.0094 µM with A549 cells.

For `CC(=O)c1cnc2ccc(-c3cc(Cl)c(O)c(Cl)c3)cc2c1Nc1ccc(CCN(C)C)cc1` [Example 744, 1-(6-(3,5-dichloro-4-hydroxyphenyl)-4-(4-(2-(dimethylamino)ethyl)phenylamino)quinolin-3-yl)ethanone], the IC50 was found to be 0.031 µM with DU4475 cells; 0.11 µM in the assay on T47D cells; 0.0017 µM on MELK; 0.43 µM in the assay with HT-1197 cells (Homo sapiens, HT1197, 72 h); 0.082 µM in the assay with A549 cells.

As to `O=C(c1cnc2ccc(-c3cc(F)c(O)c(Cl)c3)cc2c1N[C@H]1CC[C@H](CNCCF)CC1)C1CC1` [Example 701], the IC50 in the assay with DU4475 cells was 0.38 µM; with T47D cells, 0.29 µM; at MELK, 0.003 µM; in the assay with HT-1197 cells (Homo sapiens, HT1197, 72 h) it was 0.98 µM; with A549 cells, 0.41 µM.

On to `N[C@@H]1CCCN(c2ccc(Nc3c(C(=O)C4CC4)cnc4ccc(-c5cc(F)c(O)c(Cl)c5)cc34)cn2)C1` [Example 651, (R)-(4-(6-(3-aminopiperidin-1-yl)pyridin-3-ylamino)-6-(3-chloro-5-fluoro-4-hydroxyphenyl)quinolin-3-yl)(cyclopropyl)methanone], for which the IC50 was determined as 0.0071 µM in the assay on DU4475 cells; 0.0054 µM with T47D cells; 0.00076 µM on MELK; 0.12 µM in the assay on HT-1197 cells (Homo sapiens, HT1197, 72 h); 0.0075 µM in the assay on A549 cells.
